Laboratory results published in patent US11279735B2, “Cyclic peptide antibiotics” (priority 2017, dated 2022).
Values after ≈ are worked out from the molar mass of the structure shown. *1 amine or outer side, *2 acyl side, *3 side chain or, on linkers, in order; H or OH if unused. Where a SMILES comes first, the peptide text is derived from it. [ ]: non-standard residue; d: D form. X18 = CCCCCC[C@@H](OCCN[*:1])[C@@H](Cc1ccc(C)cc1)C(=O)[*:2]; X16 = CCCCCC[C@@H](O[C@@H](C)CN[*:1])[C@@H](C)C(=O)[*:2]; X2 = CCCCCC[C@@H](OC[C@@H](C)N[*:1])[C@@H](C)C(=O)[*:2]; aIle = CC[C@@H](C)[C@H](N)C(=O)O; aThr = C[C@H](O)[C@H](N)C(=O)O; NMeL = CN[C@@H](CC(C)C)C(=O)O; Chg = N[C@H](C(=O)O)C1CCCCC1; Dap = NC[C@H](N)C(=O)O

system: Escherichia coli (E. coli) strain CFT073 ATCC 700928; type: cell-based; conditions: ATCC 700928, 22 h
Summary of the method: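 Broth microdilution MIC per CLSI M07-A8 in cation-adjusted Mueller Hinton II broth with 0.002% Tween-80. Ten-point 2-fold series topped at 64, 4, 0.5 or 0.13 μg/mL depending on protocol. Final inoculum OD600 0.0005, incubated 22 h at 35 °C.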

MIC [µM] | SMILES
25 (≈ 19.3 µg/mL) | CCCCCCCCCC[C@H]1OC(=O)CNC(=O)[C@H]([C@H](C)O)NC(=O)[C@H](CN)NC(=O)[C@H](C2CCC(F)(F)CC2)NC(=O)[C@H](CC(C)C)N(C)C(=O)[C@@H]1C (single isomer, unassigned) [Example 53]
6.3 (≈ 4.66 µg/mL) | CCCCCCCCCCCC[C@H]1OC(=O)CNC(=O)[C@H]([C@H](C)O)NC(=O)[C@H](CO)NC(=O)[C@H]([C@@H](C)CC)NC(=O)[C@H](CC(C)C)N(C)C(=O)[C@@H]1C [Example 35, (6S,9S,12S,15S,18R,19R)-19-dodecyl-6-[(1S)-1-hydroxyethyl]-9-(hydroxymethyl)-15-isobutyl-16,18-dimethyl-12-[(1S)-1-methylpropyl]-1-oxa-4,7,10,13,16-pentazacyclononadecane-2,5,8,11,14,17-hexone]
0.73 (≈ 0.525 µg/mL) | CC(C)C[C@H]1C(=O)N[C@@H](C2CCCCC2)C(=O)N[C@@H](CN)C(=O)N[C@@H]([C@H](C)O)C(=O)NCC(=O)O[C@H](CCC2CC3CCC2C3)[C@@H](C)C(=O)N1C (stereo partly drawn) [Example 60, (6S,9S,12S,15S,18R,19R)-9-(Aminomethyl)-19-(2-(bicyclo[2.2.1]heptan-2-yl)ethyl)-12-cyclohexyl-6-((S)-1-hydroxyethyl)-15-isobutyl-16,18-dimethyl-1-oxa-4,7,10,13,16-pentaazacyclononadecane-2,5,8,11,14,17-hexaone]
4.4 (≈ 3.41 µg/mL) | CCCCCCCCCC[C@H]1OC(=O)CNC(=O)[C@H](Cc2c[nH]nn2)NC(=O)[C@H](CN)NC(=O)[C@H](C2CCCCC2)NC(=O)[C@H](CC(C)C)N(C)C(=O)[C@@H]1C [Example 56, (6S,9S,12S,15S,18R,19R)-6-((1H-1,2,3-triazol-4-yl)methyl)-9-(aminomethyl)-12-cyclohexyl-19-decyl-15-isobutyl-16,18-dimethyl-1-oxa-4,7,10,13,16-pentaazacyclononadecane-2,5,8,11,14,17-hexaone]
50 (≈ 35.5 µg/mL) | CCCCCCCCCC[C@H]1OC(=O)CNC(=O)[C@H](CCN)NC(=O)[C@H](CO)NC(=O)[C@H]([C@@H](C)CC)NC(=O)[C@H](CC(C)C)N(C)C(=O)[C@@H]1C [Example 20, (6S,9S,12S,15S,18R,19R)-6-(2-aminoethyl)-19-decyl-9-(hydroxymethyl)-15-isobutyl-16,18-dimethyl-12-[(1S)-1-methylpropyl]-1-oxa-4,7,10,13,16-pentazacyclononadecane-2,5,8,11,14,17-hexone]
12 (≈ 8.17 µg/mL) | CCCCCC[C@H]1O[C@@H](C)CNC(=O)[C@H]([C@H](C)O)NC(=O)[C@H](CN)NC(=O)[C@H](C2CCCCC2)NC(=O)[C@H](CC(C)C)N(C)C(=O)[C@@H]1C [Example 71, (2S,6S,9S,12S,15S,18R,19R)-9-(Aminomethyl)-12-cyclohexyl-19-hexyl-6-((S)-1-hydroxyethyl)-15-isobutyl-2,16,18-trimethyl-1-oxa-4,7,10,13,16-pentaazacyclononadecane-5,8,11,14,17-pentaone] (cyclo([Chg][Dap][aThr][X16][NMeL]))
25 (≈ 17.7 µg/mL) | CC[C@@H](C)[C@@H]1NC(=O)[C@H](CC(C)C)N(C)C(=O)[C@H](C)[C@@H](CCCCCC(F)(F)F)OC(=O)CNC(=O)[C@H]([C@H](C)O)NC(=O)[C@H](CN)NC1=O [Example 107, (6S,9S,12S,15S,18R,19R)-9-(aminomethyl)-15-isobutyl-16,18-dimethyl-6-[(1S)-1-hydroxyethyl]-12-[(1R)-1-methylpropyl]-19-(6,6,6-trifluorohexyl)-1-oxa-4,7,10,13,16-pentazacyclononadecane-2,5,8,11,14,17-hexone]
3.1 (≈ 2.2 µg/mL) | CCCCCCCCCC[C@H]1OC(=O)CNC(=O)[C@H]([C@H](C)O)NC(=O)[C@H](CN)NC(=O)[C@H]([C@H](C)CC)NC(=O)[C@H](CC2CC2)N(C)C(=O)[C@@H]1C [Example 2, (6S,9S,12S,15S,18R,19R)-9-(aminomethyl)-12-((R)-sec-butyl)-15-(cyclopropylmethyl)-19-decyl-6-((S)-1-hydroxyethyl)-16,18-dimethyl-1-oxa-4,7,10,13,16-pentaazacyclononadecane-2,5,8,11,14,17-hexaone]
25 (≈ 17.9 µg/mL) | CCCCCC[C@H]1OCCNC(=O)[C@H](CO)NC(=O)[C@H](CN)NC(=O)[C@H]([C@H](C)CC)NC(=O)[C@H](CC(C)C)N(C)C(=O)[C@@H]1Cc1ccc(C)cc1 [Example 110, (6S,9S,12S,15S,18R,19R)-9-(aminomethyl)-19-hexyl-6-(hydroxymethyl)-15-isobutyl-16-methyl-18-(p-tolylmethyl)-12-[(1R)-1-methylpropyl]-1-oxa-4,7,10,13,16-pentazacyclononadecane-5,8,11,14,17-pentone] (cyclo([Dap]S[X18][NMeL][aIle]))
4.4 (≈ 3 µg/mL) | CC(C)C[C@H]1C(=O)N[C@@H](C2CCCCC2)C(=O)N[C@@H](CN)C(=O)N[C@@H]([C@H](C)O)C(=O)NCC(=O)O[C@H](CCC(C)(C)C)[C@@H](C)C(=O)N1C [Example 63, (6S,9S,12S,15S,18R,19R)-9-(aminomethyl)-12-cyclohexyl-19-(3,3-dimethylbutyl)-6-((S)-1-hydroxyethyl)-15-isobutyl-16,18-dimethyl-1-oxa-4,7,10,13,16-pentaazacyclononadecane-2,5,8,11,14,17-hexaone]
71 (≈ 55.6 µg/mL) | Cc1ccc(C[C@H]2C(=O)N(C)[C@@H](CC(C)C)C(=O)N[C@@H](C3CCCCC3)C(=O)N[C@@H](CN)C(=O)N[C@@H]([C@H](C)O)C(=O)NCC(=O)O[C@@H]2CCC(F)(F)F)cc1 [Example 112, (6S,9S,12S,15S,18R,19R)-9-(aminomethyl)-12-cyclohexyl-15-isobutyl-16-methyl-18-(p-tolylmethyl)-6-[(1S)-1-hydroxyethyl]-19-(3,3,3-trifluoropropyl)-1-oxa-4,7,10,13,16-pentazacyclononadecane-2,5,8,11,14,17-hexone]
13 (≈ 9.72 µg/mL) | CCCCCCCCCC[C@H]1OC(=O)CNC(=O)[C@H](Cc2c[nH]cn2)NC(=O)[C@H](CO)NC(=O)[C@H]([C@@H](C)CC)NC(=O)[C@H](CC(C)C)N(C)C(=O)[C@@H]1C [Example 29, (6S,9S,12S,15S,18R,19R)-19-decyl-9-(hydroxymethyl)-6-(1H-imidazol-4-ylmethyl)-15-isobutyl-16,18-dimethyl-12-[(1S)-1-methylpropyl]-1-oxa-4,7,10,13,16-pentazacyclononadecane-2,5,8,11,14,17-hexone]
2.2 (≈ 1.66 µg/mL) | COC(C)(C)CCCCCC[C@H]1OC(=O)CNC(=O)[C@H]([C@H](C)O)NC(=O)[C@H](CN)NC(=O)[C@H](C2CCCCC2)NC(=O)[C@H](CC(C)C)N(C)C(=O)[C@@H]1C [Example 64, (6S,9S,12S,15S,18R,19R)-9-(Aminomethyl)-12-cyclohexyl-6-((S)-1-hydroxyethyl)-15-isobutyl-19-(7-methoxy-7-methyloctyl)-16,18-dimethyl-1-oxa-4,7,10,13,16-pentaazacyclononadecane-2,5,8,11,14,17-hexaone]
3.1 (≈ 2.11 µg/mL) | CCCCCC[C@H]1OC[C@@H](C)NC(=O)[C@H](COC)NC(=O)[C@H](CN)NC(=O)[C@H](C2CCCCC2)NC(=O)[C@H](CC(C)C)N(C)C(=O)[C@@H]1C [Example 128, (3R,6S,9S,12S,15S,18R,19R)-9-(aminomethyl)-12-cyclohexyl-19-hexyl-15-isobutyl-6-(methoxymethyl)-3,16,18-trimethyl-1-oxa-4,7,10,13,16-pentazacyclononadecane-5,8,11,14,17-pentone] (cyclo([Chg][Dap]S(Me)[X2][NMeL]))
6.3 (≈ 4.26 µg/mL) | CCCCCCC1OC(=O)CNC(=O)[C@H]([C@H](C)O)NC(=O)[C@H](CN)NC(=O)[C@H]([C@H](C)CC)NC(=O)[C@H](CC(C)C)N(C)C(=O)C1(F)F (stereo partly drawn) [Example 61, (6S,9S,12S,15S)-9-(Aminomethyl)-12-((R)-sec-butyl)-18,18-difluoro-19-hexyl-6-((S)-1-hydroxyethyl)-15-isobutyl-16-methyl-1-oxa-4,7,10,13,16-pentaazacyclononadecane-2,5,8,11,14,17-hexaone]
3.1 (≈ 2.24 µg/mL) | CCCCCCCCCC[C@H]1OC(=O)CNC(=O)[C@H](CO)NC(=O)[C@H](CO)NC(=O)[C@H](C2CCCCC2)NC(=O)[C@H](CC(C)C)N(C)C(=O)[C@@H]1C [Example 7, (6S,9S,12S,15S,18R,19R)-12-cyclohexyl-19-decyl-6,9-bis(hydroxymethyl)-15-isobutyl-16,18 dimethyl-1-oxa-4,7,10,13,16-pentazacyclononadecane-2,5,8,11,14,17-hexone]
0.39 (≈ 0.28 µg/mL) | CCC[C@H]1C(=O)N[C@@H](C2CCCCCC2)C(=O)N[C@@H](CN)C(=O)N[C@@H]([C@H](C)O)C(=O)NCC(=O)O[C@H](C[C@@H]2C[C@@H]3CC[C@@H](C3)C2)[C@@H](C)C(=O)N1C [Example 83, (6S,9S,12S,15S,18R,19R)-9-(Aminomethyl)-19-(((1R,3s,5S)-bicyclo[3.2.1]octan-3-yl)methyl)-12-cycloheptyl-6-((S)-1-hydroxyethyl)-16,18-dimethyl-15-propyl-1-oxa-4,7,10,13,16-pentaazacyclononadecane-2,5,8,11,14,17-hexaone]
3.7 (≈ 2.9 µg/mL) | CCCCCC[C@H]1OC(=O)CNC(=O)[C@H]([C@H](C)O)NC(=O)[C@H](CN)NC(=O)[C@H](C2CCCCC2)NC(=O)[C@H](CC(C)C)N(C)C(=O)[C@@H]1CCc1ccc(C)cc1 [Example 97, (6S,9S,12S,15S,18R,19R)-9-(aminomethyl)-12-cyclohexyl-19-hexyl-15-isobutyl-16-methyl-18-[2-(p-tolyl)ethyl]-6-[(1S)-1-hydroxyethyl]-1-oxa-4,7,10,13,16-pentazacyclononadecane-2,5,8,11,14,17-hexone]
50 (≈ 34.9 µg/mL) | CCCCCCCCCC[C@H]1OC(=O)CNC(=O)[C@H]([C@H](C)O)NC(=O)[C@H](CO)NC(=O)[C@H](CCC)NC(=O)[C@H](CC(C)C)N(C)C(=O)[C@@H]1C [Example 40, (6S,9S,12S,15S,18R,19R)-19-decyl-6-((S)-1-hydroxyethyl)-9-(hydroxymethyl)-15-isobutyl-16,18-dimethyl-12-propyl-1-oxa-4,7,10,13,16-pentaazacyclononadecane-2,5,8,11,14,17-hexaone]
